Test results: patent US20110039721A1, “METHOD FOR PREDICTION ABOUT CARCINOGENICITY OF SUBSTANCE IN RODENT” (Chemicals Evaluation and Research Institute, priority 2007, published 2011)

Legend:
[1] = tested on: mRNA expressed from the genes (A) to (D) in rat liver; test: Behavior of genes (mRNA expression level, oligo-DNA microarray) in rat liver after 28-day oral administration; assay type: in vivo; details: for Behavior of gene caused by administration of chemical substance, Gene No. 4846 / Behavior of gene caused by administration of chemical substance, Gene No. 2026 / Behavior of gene caused by administration of chemical substance, Gene No. 4218 / Behavior of gene caused by administration of chemical substance, Gene No. 6182 / Behavior of gene caused by administration of chemical substance, Gene No. 5600: gene group (A); for Behavior of gene caused by administration of chemical substance, Gene No. 4846: Unigene No. Rn.144554; for Behavior of gene caused by administration of chemical substance, Gene No. 2026 / Behavior of gene caused by administration of chemical substance, Gene No. 4218: Unigene No. Rn.167075; for Behavior of gene caused by administration of chemical substance, Gene No. 6182: Unigene No. Rn.5834; for Behavior of gene caused by administration of chemical substance, Gene No. 5600: Unigene No. Rn.9836; for Behavior of gene caused by administration of chemical substance, Gene No. 1494 / Behavior of gene caused by administration of chemical substance, Gene No. 2045 / Behavior of gene caused by administration of chemical substance, Gene No. 2203: gene group (B); for Behavior of gene caused by administration of chemical substance, Gene No. 1494: Unigene No. Rn.1430; for Behavior of gene caused by administration of chemical substance, Gene No. 2045: Unigene No. Rn.19329; for Behavior of gene caused by administration of chemical substance, Gene No. 2203: Unigene No. Rn.21240; for Behavior of gene caused by administration of chemical substance, Gene No. 533 / Behavior of gene caused by administration of chemical substance, Gene No. 725 / Behavior of gene caused by administration of chemical substance, Gene No. 1163 / Behavior of gene caused by administration of chemical substance, Gene No. 4973 / Behavior of gene caused by administration of chemical substance, Gene No. 4095 / Behavior of gene caused by administration of chemical substance, Gene No. 1334 / Behavior of gene caused by administration of chemical substance, Gene No. 6620 / Behavior of gene caused by administration of chemical substance, Gene No. 6303 / Behavior of gene caused by administration of chemical substance, Gene No. 5878 / Behavior of gene caused by administration of chemical substance, Gene No. 1131 / Behavior of gene caused by administration of chemical substance, Gene No. 1562 / Behavior of gene caused by administration of chemical substance, Gene No. 1741 / Behavior of gene caused by administration of chemical substance, Gene No. 893 / Behavior of gene caused by administration of chemical substance, Gene No. 6026 / Behavior of gene caused by administration of chemical substance, Gene No. 154 / Behavior of gene caused by administration of chemical substance, Gene No. 1993 / Behavior of gene caused by administration of chemical substance, Gene No. 813 / Behavior of gene caused by administration of chemical substance, Gene No. 2494 / Behavior of gene caused by administration of chemical substance, Gene No. 2546 / Behavior of gene caused by administration of chemical substance, Gene No. 3776 / Behavior of gene caused by administration of chemical substance, Gene No. 3929 / Behavior of gene caused by administration of chemical substance, Gene No. 1119 / Behavior of gene caused by administration of chemical substance, Gene No. 6742 / Behavior of gene caused by administration of chemical substance, Gene No. 5634: gene group (C); for Behavior of gene caused by administration of chemical substance, Gene No. 533: Unigene No. Rn.106184; for Behavior of gene caused by administration of chemical substance, Gene No. 725: Unigene No. Rn.108075; for Behavior of gene caused by administration of chemical substance, Gene No. 1163: Unigene No. Rn.11766; for Behavior of gene caused by administration of chemical substance, Gene No. 4973: Unigene No. Rn.118529; for Behavior of gene caused by administration of chemical substance, Gene No. 4095: Unigene No. Rn.119024; for Behavior of gene caused by administration of chemical substance, Gene No. 1334 / Behavior of gene caused by administration of chemical substance, Gene No. 6620: Unigene No. Rn.120914; for Behavior of gene caused by administration of chemical substance, Gene No. 6303: Unigene No. Rn.123063; for Behavior of gene caused by administration of chemical substance, Gene No. 5878: Unigene No. Rn.143213; for Behavior of gene caused by administration of chemical substance, Gene No. 1131: Unigene No. Rn.144946; for Behavior of gene caused by administration of chemical substance, Gene No. 1562: Unigene No. Rn.14744; for Behavior of gene caused by administration of chemical substance, Gene No. 1741: Unigene No. Rn.1647; for Behavior of gene caused by administration of chemical substance, Gene No. 893: Unigene No. Rn.164817; for Behavior of gene caused by administration of chemical substance, Gene No. 6026: Unigene No. Rn.167685; for Behavior of gene caused by administration of chemical substance, Gene No. 154: Unigene No. Rn.185941; for Behavior of gene caused by administration of chemical substance, Gene No. 1993: Unigene No. Rn.18728; for Behavior of gene caused by administration of chemical substance, Gene No. 813: Unigene No. Rn.201760; for Behavior of gene caused by administration of chemical substance, Gene No. 2494: Unigene No. Rn.23969; for Behavior of gene caused by administration of chemical substance, Gene No. 2546: Unigene No. Rn.24561; for Behavior of gene caused by administration of chemical substance, Gene No. 3776: Unigene No. Rn.43232; for Behavior of gene caused by administration of chemical substance, Gene No. 3929: Unigene No. Rn.4620; for Behavior of gene caused by administration of chemical substance, Gene No. 1119: Unigene No. Rn.9757; for Behavior of gene caused by administration of chemical substance, Gene No. 6742: Unigene No. Rn.9779; for Behavior of gene caused by administration of chemical substance, Gene No. 5634: Unigene No. Rn.9862; for Behavior of gene caused by administration of chemical substance, Gene No. 5726: gene group (D), Unigene No. Rn.9939
Procedure, shortened: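 Male F344 SPF rats, 5 weeks old, four per group, dosed by oral gavage once daily for 28 days with test chemical or matched-volume solvent. Liver total RNA profiled on oligo-DNA microarray. Change ≥1.5-fold or ≤1/1.5 versus vehicle counted as significant if its direction matched that seen with other carcinogens.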

[2] = classification of the substance (M+/M−); cited from earlier work
liver = details: classification of the substance (Cr+/Cr−); cited from earlier work
rodent = details: classification of the substance (C+/C−); cited from earlier work

## CCOC(=O)C(C)(C)Oc1ccc(Cl)cc1 [TS001, Clofibrate]
[1]; mRNA vs vehicle control group
  Behavior of gene caused by administration of chemical substance, Gene No. 4846: −
  Behavior of gene caused by administration of chemical substance, Gene No. 2026: +
  Behavior of gene caused by administration of chemical substance, Gene No. 4218: −
  Behavior of gene caused by administration of chemical substance, Gene No. 6182: +
  Behavior of gene caused by administration of chemical substance, Gene No. 5600: −
  Behavior of gene caused by administration of chemical substance, Gene No. 1494: +
  Behavior of gene caused by administration of chemical substance, Gene No. 2045: +
  Behavior of gene caused by administration of chemical substance, Gene No. 2203: +
  Behavior of gene caused by administration of chemical substance, Gene No. 533: +
  Behavior of gene caused by administration of chemical substance, Gene No. 725: +
  Behavior of gene caused by administration of chemical substance, Gene No. 1163: +
  Behavior of gene caused by administration of chemical substance, Gene No. 4973: +
  Behavior of gene caused by administration of chemical substance, Gene No. 4095: +
  Behavior of gene caused by administration of chemical substance, Gene No. 1334: −
  Behavior of gene caused by administration of chemical substance, Gene No. 6620: −
  Behavior of gene caused by administration of chemical substance, Gene No. 6303: −
  Behavior of gene caused by administration of chemical substance, Gene No. 5878: −
  Behavior of gene caused by administration of chemical substance, Gene No. 1131: −
  Behavior of gene caused by administration of chemical substance, Gene No. 1562: −
  Behavior of gene caused by administration of chemical substance, Gene No. 1741: −
  Behavior of gene caused by administration of chemical substance, Gene No. 893: +
  Behavior of gene caused by administration of chemical substance, Gene No. 6026: −
  Behavior of gene caused by administration of chemical substance, Gene No. 154: −
  Behavior of gene caused by administration of chemical substance, Gene No. 1993: −
  Behavior of gene caused by administration of chemical substance, Gene No. 813: +
  Behavior of gene caused by administration of chemical substance, Gene No. 2494: −
  Behavior of gene caused by administration of chemical substance, Gene No. 2546: −
  Behavior of gene caused by administration of chemical substance, Gene No. 3776: −
  Behavior of gene caused by administration of chemical substance, Gene No. 3929: −
  Behavior of gene caused by administration of chemical substance, Gene No. 1119: −
  Behavior of gene caused by administration of chemical substance, Gene No. 6742: +
  Behavior of gene caused by administration of chemical substance, Gene No. 5634: −
  Behavior of gene caused by administration of chemical substance, Gene No. 5726: −
[2]
  Mutagenicity by Ames test: M−
liver
  Liver carcinogenicity: Cr+
rodent
  Carcinogenicity: C+

## ClC(Cl)(Cl)Cl [TS003, Carbon tetrachloride]
[1]
  Behavior of gene caused by administration of chemical substance, Gene No. 4846: +
  Behavior of gene caused by administration of chemical substance, Gene No. 2026: +
  Behavior of gene caused by administration of chemical substance, Gene No. 4218: +
  Behavior of gene caused by administration of chemical substance, Gene No. 6182: +
  Behavior of gene caused by administration of chemical substance, Gene No. 5600: +
  Behavior of gene caused by administration of chemical substance, Gene No. 1494: +
  Behavior of gene caused by administration of chemical substance, Gene No. 2045: +
  Behavior of gene caused by administration of chemical substance, Gene No. 2203: +
  Behavior of gene caused by administration of chemical substance, Gene No. 533: +
  Behavior of gene caused by administration of chemical substance, Gene No. 725: −
  Behavior of gene caused by administration of chemical substance, Gene No. 1163: +
  Behavior of gene caused by administration of chemical substance, Gene No. 4973: +
  Behavior of gene caused by administration of chemical substance, Gene No. 4095: −
  Behavior of gene caused by administration of chemical substance, Gene No. 1334: −
  Behavior of gene caused by administration of chemical substance, Gene No. 6620: −
  Behavior of gene caused by administration of chemical substance, Gene No. 6303: −
  Behavior of gene caused by administration of chemical substance, Gene No. 5878: −
  Behavior of gene caused by administration of chemical substance, Gene No. 1131: −
  Behavior of gene caused by administration of chemical substance, Gene No. 1562: −
  Behavior of gene caused by administration of chemical substance, Gene No. 1741: +
  Behavior of gene caused by administration of chemical substance, Gene No. 893: −
  Behavior of gene caused by administration of chemical substance, Gene No. 6026: −
  Behavior of gene caused by administration of chemical substance, Gene No. 154: +
  Behavior of gene caused by administration of chemical substance, Gene No. 1993: −
  Behavior of gene caused by administration of chemical substance, Gene No. 813: −
  Behavior of gene caused by administration of chemical substance, Gene No. 2494: −
  Behavior of gene caused by administration of chemical substance, Gene No. 2546: −
  Behavior of gene caused by administration of chemical substance, Gene No. 3776: −
  Behavior of gene caused by administration of chemical substance, Gene No. 3929: −
  Behavior of gene caused by administration of chemical substance, Gene No. 1119: −
  Behavior of gene caused by administration of chemical substance, Gene No. 6742: −
  Behavior of gene caused by administration of chemical substance, Gene No. 5634: −
  Behavior of gene caused by administration of chemical substance, Gene No. 5726: −
[2]
  Mutagenicity by Ames test: M−
liver
  Liver carcinogenicity: Cr+
rodent
  Carcinogenicity: C+
